Data on three compounds can be found in US9701677B2, “Fused pyrimidine compounds” (Gilead Sciences, Inc., priority 2014, dated 2017).

Read-outs that look alike come from different tables or passages of the source.

What all share (assay type): cell-based
The test system of one experiment is HIV-1 HBX2 (wild type). The experiment can be described thus: High throughput cytopathic effect assay in MT-4 cells, wild type HIV-1. The source says: (§1) Compounds were screened in a miniaturized, high throughput cytopathic effect assay for activity against HIV-1 HBX2 (wild type) and HIV-1 reverse transcriptase mutants K103N and Y181C. In Tables 1 and 2 below, “w.t.” refers to results of the tested compounds run with the wildtype 1 and “w.t. assay 2” refers results of the tested compounds run with the wildtype on the same day as the testing of the compounds with the mutants. Thus, “w.t. assay 2” was run under the same conditions as the testing of the compounds with the mutants and provides a direct comparison with the results from the testing with the mutants.
(§2) Ten-point serial dilutions of compounds with half-log step size were generated in DMSO. AZT (5 μM) was used as the positive control and DMSO as the negative control. The Echo acoustic dispenser was used to deliver 200 nL of serially diluted compound into sterile 384 well tissue culture assay plates. Two million MT-4 cells were incubated with each of the 3 viruses at MOI of 0.0005 in separate 1 mL infection tubes for 1 hour at 37° C. The cells were diluted in cell culture medium (RPMI+10% FBS) to 50,000 cells/mL. The infected cells were added to 384 well assay plates containing serially dilute compounds. Assay plates were incubated for 5 days in a humidified incubator set at 37° C. and 5% CO2. To measure the cytopathic effect of HIV, 40 μL Cell TiterGlo was added to each well and the resulting luminescence signal is read with the Envision plate reader (Perkin Elmer). Data were normalized to positive and negative controls in each plate and expressed as % CPE Protection. […]

Experiment [1] concerns HIV-1 reverse transcriptase mutant Y181C. The experiment is described as follows: High throughput cytopathic effect assay in MT-4 cells, Y181C mutant. The following applies: for EC50: Human immunodeficiency virus 1, MT4, 120 h, read-out: MT4 EC50 (nM) against Y181C; for FC against mutant Y181C: fold change of EC50, Y181C versus w.t. assay 2.
Description: as §1, §2

For the next experiment, the target named is T1, hERG channels (Homo sapiens, UniProt Q12809).
T1 construct: host or cells: CHO cell line stably expressing hERG
The experiment is described as follows: hERG assay, whole cell recordings in CHO cell line stably expressing hERG channels. The following applies: CHO cells expressing hERG, tail current, Table 3. As to the method:
Cells were cultured in DMEM/F12 containing 10% FBS, 1% penicillin/streptomycin and 500 μg/ml G418. Before testing, cells were harvested using Accumax (Innovative Cell Technologies).
Cells were voltage clamped at a holding potential of −80 mV. The hERG current was then activated by a depolarizing step to −50 mV for 300 ms. This first step at −50 mV was used as a baseline for measuring peak amplitude of the tail current. Next, a voltage step to +20 mV was applied for 5 s to activate the channels. Finally, a step back to −50 mV for 5 s removed activation and the deactivating tail current was recorded.
Solutions were mixed by sonication for 20 min, followed by vigorous vortexing. Prior to testing, compounds were diluted to test concentrations in glass vials using External Solution. Dilutions were prepared no longer than 20 min prior to use.
External solution containing 0.1% DMSO (vehicle) was applied to the cells to establish a baseline. […] Test article solutions were added to cells in 4 separate additions. Cells were kept in test solution until effect of the test article reached steady state, to a maximum of 12 min. Next, 1 μM cisapride (positive control) was added. Finally, washout with External Solution was performed until the recovery current reached steady state.

In experiment [2] the test system is HIV-1 reverse transcriptase mutant K103N. The experiment can be described thus: High throughput cytopathic effect assay in MT-4 cells, K103N mutant. The following applies: for EC50: Human immunodeficiency virus 1, MT4, 120 h, read-out: MT4 EC50 (nM) against K103N; for FC against mutant K103N: fold change of EC50, K103N versus w.t. assay 2.
Description: as §1, §2

Setting [3] is: Human immunodeficiency virus 1, MT4, 120 h, MT-4 cells, HIV-1 wild type, 5 days, CPE protection (Cell TiterGlo), read-out: MT4 EC50 (nM) against w.t.
[4] abbreviates: Human immunodeficiency virus 1, MT4, read-out: MT4 EC50 (nM) against w.t. assay 2.

T1 sequence (Q12809 whole entry): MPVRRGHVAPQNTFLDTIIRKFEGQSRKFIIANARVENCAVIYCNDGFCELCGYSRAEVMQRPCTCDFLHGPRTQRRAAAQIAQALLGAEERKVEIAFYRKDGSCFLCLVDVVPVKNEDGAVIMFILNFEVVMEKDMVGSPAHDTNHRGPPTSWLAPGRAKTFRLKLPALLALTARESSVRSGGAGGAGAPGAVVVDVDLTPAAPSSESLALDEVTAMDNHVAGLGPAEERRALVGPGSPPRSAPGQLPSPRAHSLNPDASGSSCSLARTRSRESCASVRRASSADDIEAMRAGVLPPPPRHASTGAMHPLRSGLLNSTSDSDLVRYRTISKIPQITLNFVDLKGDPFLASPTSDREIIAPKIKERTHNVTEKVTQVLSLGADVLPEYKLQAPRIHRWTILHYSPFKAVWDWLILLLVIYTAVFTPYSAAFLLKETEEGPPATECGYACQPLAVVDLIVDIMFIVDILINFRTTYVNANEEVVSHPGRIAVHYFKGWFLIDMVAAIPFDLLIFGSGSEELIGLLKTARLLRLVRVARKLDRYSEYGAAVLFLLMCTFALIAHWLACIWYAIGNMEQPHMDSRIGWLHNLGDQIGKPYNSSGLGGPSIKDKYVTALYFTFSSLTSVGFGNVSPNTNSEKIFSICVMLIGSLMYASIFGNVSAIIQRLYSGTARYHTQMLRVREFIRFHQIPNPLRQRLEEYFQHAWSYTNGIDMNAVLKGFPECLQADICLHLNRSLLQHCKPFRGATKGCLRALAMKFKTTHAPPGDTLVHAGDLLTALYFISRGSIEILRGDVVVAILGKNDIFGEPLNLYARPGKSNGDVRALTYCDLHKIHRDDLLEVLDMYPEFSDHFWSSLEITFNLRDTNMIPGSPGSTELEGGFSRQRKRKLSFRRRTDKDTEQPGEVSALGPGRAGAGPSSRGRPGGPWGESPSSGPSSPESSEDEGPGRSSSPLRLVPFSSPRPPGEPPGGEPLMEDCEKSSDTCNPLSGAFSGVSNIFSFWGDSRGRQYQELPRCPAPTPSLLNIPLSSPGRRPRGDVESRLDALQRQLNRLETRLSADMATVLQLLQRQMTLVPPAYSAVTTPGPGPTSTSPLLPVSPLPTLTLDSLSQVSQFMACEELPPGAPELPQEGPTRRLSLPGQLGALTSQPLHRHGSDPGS

What is called EC50 is the concentration giving half of the maximal effect. For orientation: IC50 means the midpoint of a concentration-inhibition curve. The low end stands for inhibition by little substance, the high end for a need for much substance. Consider `Cc1cc(/C=C/C#N)cc(C)c1-c1cncc2c(N)nc(Nc3ccc(C#N)cc3)nc12` [Compound 2, (E)-4-((4-Amino-8-(4-(2-cyanovinyl)-2,6-dimethylphenyl)pyrido[4,3-d]pyrimidin-2-yl)amino)benzonitrile], for which the EC50 turned out to be 6.1 nM with HIV-1 HBX2 (wild type) (setting [3]), 12.6 nM in the experiment on HIV-1 HBX2 (wild type) (setting [4]), 40.4 nM in experiment [1] and 14.3 nM in experiment [2]. In experiment [1], the “FC against mutant Y181C” value amounted to 3.2. The concentration for half-maximal inhibition (IC50) on hERG channels worked out at 1700 nM. Besides, the “FC against mutant K103N” value in experiment [2] amounted to 1.1.

For the compound `Cc1cc(/C=C/C#N)cc(C)c1-c1nccc2c(N)nc(Nc3ccc(C#N)cc3)nc12` [Compound 1, (E)-4-((4-Amino-8-(4-(2-cyanovinyl)-2,6-dimethylphenyl)pyrido[3,4-d]pyrimidin-2-yl)amino)benzonitrile], the EC50 with HIV-1 HBX2 (wild type) (setting [3]) came to 2.1 nM; in the experiment on HIV-1 HBX2 (wild type) (setting [4]), 1.4 nM; in experiment [1] it was 5.5 nM; in experiment [2] it was 2.3 nM. In experiment [1], the “FC against mutant Y181C” value is recorded as 4.0. Further, the “FC against mutant K103N” value in experiment [2] came to 1.7.

Take `Cc1cc(/C=C/C#N)cc(C)c1-c1ccnc2c(N)nc(Nc3ccc(C#N)cc3)nc12` [Compound 3, (E)-4-((4-amino-8-(4-(2-cyanovinyl)-2,6-dimethylphenyl)pyrido[3,2-d]pyrimidin-2-yl)amino)benzonitrile]: in the experiment with HIV-1 HBX2 (wild type) (setting [3]), the EC50 was 4.6 nM.
